Assay results taken from article PMC11720030, “Inhibitory Activity of N- and S-Functionalized Monoterpene Diols Towards Monoamine Oxidases A and B” (International Journal of Molecular Sciences, 2024).

How the values were obtained:
Assay type in all cases: biochemical
MAO-B [1] = target: T1, MAO-B (Mus musculus, UniProt Q8BW75); assay: residual MAO-B activity at […], fluorescent kynuramine assay in crude mouse brain mitochondria; conditions: read-out: MAO-B, % ± SD
T1 construct: gene Maob
T1 sequence (Q8BW75 2-520): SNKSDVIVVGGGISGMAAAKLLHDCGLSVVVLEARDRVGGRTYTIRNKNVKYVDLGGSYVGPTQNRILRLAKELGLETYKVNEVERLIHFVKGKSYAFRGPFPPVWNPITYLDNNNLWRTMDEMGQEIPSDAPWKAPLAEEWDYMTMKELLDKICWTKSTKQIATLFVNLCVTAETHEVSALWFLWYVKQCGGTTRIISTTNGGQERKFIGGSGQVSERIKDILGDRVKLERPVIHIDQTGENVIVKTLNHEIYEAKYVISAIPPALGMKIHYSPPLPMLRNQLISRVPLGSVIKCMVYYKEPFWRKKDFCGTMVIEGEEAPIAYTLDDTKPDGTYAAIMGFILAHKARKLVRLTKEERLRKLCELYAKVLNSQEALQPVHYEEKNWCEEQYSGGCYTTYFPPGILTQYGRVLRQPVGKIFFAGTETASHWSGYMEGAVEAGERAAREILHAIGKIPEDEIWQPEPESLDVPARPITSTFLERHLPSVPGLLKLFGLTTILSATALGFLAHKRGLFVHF

MAO-A [2] = target: T2, MAO-A (Mus musculus, UniProt Q64133); assay: residual MAO-A activity at […], fluorescent kynuramine assay in crude mouse brain mitochondria; conditions: read-out: MAO-A, % ± SD
T2 construct: gene Maoa
T2 sequence (Q64133 1-526): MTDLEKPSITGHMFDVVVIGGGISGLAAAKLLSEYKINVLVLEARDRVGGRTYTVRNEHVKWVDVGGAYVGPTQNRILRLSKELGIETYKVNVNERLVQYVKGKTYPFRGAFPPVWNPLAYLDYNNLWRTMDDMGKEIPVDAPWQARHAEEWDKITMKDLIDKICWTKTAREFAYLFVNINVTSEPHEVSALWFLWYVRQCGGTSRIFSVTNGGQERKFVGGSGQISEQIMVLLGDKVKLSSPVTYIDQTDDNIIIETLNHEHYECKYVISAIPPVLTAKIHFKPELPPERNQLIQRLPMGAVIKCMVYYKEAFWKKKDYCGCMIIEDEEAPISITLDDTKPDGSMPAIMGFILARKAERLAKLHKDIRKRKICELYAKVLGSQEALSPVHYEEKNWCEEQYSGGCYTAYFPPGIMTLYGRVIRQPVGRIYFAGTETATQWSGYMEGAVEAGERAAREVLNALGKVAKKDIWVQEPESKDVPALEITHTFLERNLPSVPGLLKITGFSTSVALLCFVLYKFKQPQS

MAO-B [3] = target: T1, MAO-B; assay: fluorescent kynuramine MAO activity assay in crude mouse brain mitochondria
MAO-A [4] = target: T2, MAO-A; assay: as above

Compound	activity at 100 µM (MAO-B [1]) [%]	IC50 (MAO-A [4]) [µM]	further results
C=C(CNc1cccc(C(C)=O)c1)[C@@H]1CC=C(C)[C@@H](O)[C@@H]1O [compound 31, 1-(3-(2-((1S,5R,6R)-5,6-Dihydroxy-4-methylcyclohex-3-enyl)allylamino)phenyl)ethanone]	66 ± 2	–	–
C=C(CNc1ccccc1C(C)=O)[C@@H]1CC=C(C)[C@@H](O)[C@@H]1O [compound 30, 1-(2-(2-((1S,5R,6R)-5,6-Dihydroxy-4-methylcyclohex-3-enyl)allylamino)phenyl)ethanone]	–	–	activity at 100 µM (MAO-A [2]): 57 ± 1%; IC50 (MAO-B [3]): 95 ± 5 µM
C#CCN(C)CCCOc1ccc(Cl)cc1Cl [clorgiline, reference compound]	–	0.00136	–
C=C(CNc1ccc(C)cc1C)[C@@H]1CC=C(C)[C@@H](O)[C@@H]1O [compound 28, (1R,2R,6S)-6-(3-(2,4-Dimethylphenylamino)prop-1-en-2-yl)-3-methylcyclohex-3-ene-1,2-diol]	–	178 ± 44	–
C=C(CNc1ccc(C)cc1)[C@@H]1CC=C(C)[C@@H](O)[C@@H]1O [compound 27, (1R,2R,6S)-3-Methyl-6-(3-(p-tolylamino)prop-1-en-2-yl)cyclohex-3-ene-1,2-diol]	66 ± 0.1	–	–
